Measurements published in patent publication US8901165B2, “Alkoxylated glycerol acetals and their derivatives” (Cognis IP Management GmbH, priority 2009, dated 2014).

Legend:
[1] = Dynamic and quasi-static surface tension, tensiometer SITA science line t60; assay type: physicochemical; conditions: for Surface Tension at 0.1 Hz: bubble frequency 0.1 Hz (quasi-static); for Surface Tension at 10 Hz: bubble frequency 10 Hz (dynamic)
Text: Quasi-Static or equilibrium surface tension at an air-liquid interface can be determined by the Du Noüy ring method, the Wilhelmy plate or the like. […] To avoid such problems, a dynamic method is used but the frequency is reduced to 0.1 Hz or less, thus close enough to equilibrium conditions. […] The products therefore fulfill the complex profile as explained above perfectly.
(§1) Foam properties and surface tension of various alkoxylated glycerol acetals were compared with data obtained from conventional fatty alcohol alkoxylates at 0.1 and 0.25% b.w. concentration, respectively. Foam potential was tested with SITA foam tester R-2000, available from SITA Messtechnik GmbH, Gostritzer Str. 61-63, 01217 Dresden, Germany. Dynamic surface tension was determined with the tensiometer SITA science line t60, ibid.

[2] = Foam potential, SITA foam tester R-2000; assay type: physicochemical; conditions: 0.1% aqueous solution/dispersion
Description: as §1

[3] = 0.1% aqueous solution/dispersion
[4] = 0.25% aqueous solution/dispersion

Surface Tension at 0.1 Hz [1, 3] | Surface Tension at 10 Hz [1, 3] | Foam after 1 min [2] | Foam after 5 min [2] | Surface Tension at 0.1 Hz [1, 4] | Surface Tension at 10 Hz [1, 4] | Substance
26 mN/m | 40 mN/m | 190 mL | 170 mL | – | – | Decanol + 5EO [Example C2, reference compound]
– | – | – | – | 26 mN/m | 33 mN/m | Decanol + 5EO [Example C4, reference compound]
27 mN/m | 40 mN/m | 225 mL | 210 mL | – | – | Isodecanol + 6EO [Example C1, reference compound]
– | – | – | – | 27 mN/m | 34 mN/m | Isodecanol + 6EO [Example C3, reference compound]

The next lines start with the substance.

Substance | Surface Tension at 0.1 Hz [1, 3] | Surface Tension at 10 Hz [1, 3] | Foam after 1 min [2] | Foam after 5 min [2] | Surface Tension at 0.1 Hz [1, 4] | Surface Tension at 10 Hz [1, 4]
iso-nonyl glycerol acetal+3PO+3EO [Example 5] | 31 mN/m | 43 mN/m | 0 mL | 0 mL | – | –
iso-nonyl glycerol acetal+3PO+3EO [Example 13] | – | – | – | – | 29 mN/m | 36 mN/m
n-decyl glycerol acetal+4PO+4EO [Example 2] | 30 mN/m | 52 mN/m | 100 mL | 80 mL | – | –
n-decyl glycerol acetal+4PO+4EO [Example 3] | 31 mN/m | 50 mN/m | 120 mL | 110 mL | – | –
n-decyl glycerol acetal+4PO+4EO [Example 10] | – | – | – | – | 32 mN/m | 38 mN/m
n-decyl glycerol acetal+4PO+4EO [Example 11] | – | – | – | – | 31 mN/m | 44 mN/m
n-octyl glycerol acetal+4PO+4EO [Example 1] | 32 mN/m | 44 mN/m | 30 mL | 25 mL | – | –
n-octyl glycerol acetal+4PO+4EO [Example 9] | – | – | – | – | 32 mN/m | 39 mN/m
